Measured values from patent publication US20060154880A1, “Methods and compositions using immunomodulatory compounds for treatment and management of parasitic diseases” (priority 2004, published 2006).

Key:
TNF-α production = assay: Inhibition of TNF-α production following LPS-stimulation of human PBMC; assay type: cell-based
T-cells = assay: Stimulation of T-cell proliferation following primary induction by TCR activation; assay type: cell-based
IL-2 production = assay: Augmentation of IL-2 production following TCR activation of PBMC; assay type: cell-based
IFN-γ production = assay: Augmentation of IFN-γ production following TCR activation of T-cells; assay type: cell-based
IL-1β production = assay: LPS-stimulated production of IL-1β by PBMC; assay type: cell-based
IL-6 production = assay: LPS-stimulated production of IL-6 by PBMC; assay type: cell-based
IL-10 production = assay: LPS-stimulated production of IL-10 by PBMC; assay type: cell-based
[1] = cited from earlier work; for hygroscopicity: polymorphic form, solid state; for stability / interconversion of polymorphic form: solvent system as stated

Nc1cccc2c1CN(C1CCC(=O)NC1=O)C2=O (stereo not shown)
effect on LPS-stimulated production of TNF-α by PBMC (TNF-α production): dose-dependent inhibition | potency relative to thalidomide in stimulating the proliferation of T-cells (T-cells): 50-100 times | potency relative to thalidomide in augmenting the production of IL-2 (IL-2 production): 50-100 times | potency relative to thalidomide in augmenting the production of IFN-γ (IFN-γ production): 50-100 times | effect on LPS-stimulated production of IL-1β by PBMC (IL-1β production): dose-dependent inhibition | effect on LPS-stimulated production of IL-6 by PBMC (IL-6 production): dose-dependent inhibition | effect on production of the anti-inflammatory cytokine IL-10 (IL-10 production): increased production

Nc1cccc2c1CN(C1CCC(=O)NC1=O)C2=O (stereo not shown) [Form A, 3-(4-amino-1-oxo-1,3 dihydro-isoindol-2-yl)-piperidene-2,6-dione]
hygroscopicity [1]: weakly or not hygroscopic | stability / interconversion of polymorphic form [1]: most thermodynamically stable anhydrous polymorph

Nc1cccc2c1CN(C1CCC(=O)NC1=O)C2=O (stereo not shown) [Form B, 3-(4-amino-1-oxo-1,3 dihydro-isoindol-2-yl)-piperidene-2,6-dione]
stability / interconversion of polymorphic form [1]: converts to Form E in aqueous solvent systems

Nc1cccc2c1CN(C1CCC(=O)NC1=O)C2=O (stereo not shown) [Form C, 3-(4-amino-1-oxo-1,3 dihydro-isoindol-2-yl)-piperidene-2,6-dione]
hygroscopicity [1]: not hygroscopic below about 85% RH

Nc1cccc2c1CN(C1CCC(=O)NC1=O)C2=O (stereo not shown) [Form D, 3-(4-amino-1-oxo-1,3 dihydro-isoindol-2-yl)-piperidene-2,6-dione]
hygroscopicity [1]: either weakly or not hygroscopic

Nc1cccc2c1CN(C1CCC(=O)NC1=O)C2=O (stereo not shown) [Form E, 3-(4-amino-1-oxo-1,3 dihydro-isoindol-2-yl)-piperidene-2,6-dione]
stability / interconversion of polymorphic form [1]: most stable form
